Experiments:
Pyrenophora teres = Pyrenophora teres (barley) test/curative; format: in vivo; settings: curative spray, 50 g/ha of each active compound, evaluation 8 days after inoculation
Procedure: (§1) Solvent: 50 parts by weight of N,N-dimethylacetamide Emulsifier: 1 part by weight of alkylaryl polyglycol ether
To produce a suitable preparation of active compound, 1 part by weight of active compound is mixed with the stated amounts of solvent and emulsifier, and the concentrate is diluted with water to the desired concentration or the active compound or a combination of active compounds in a commercially available formulation is diluted with water to the desired concentration.
To test for curative activity, young plants are sprayed with a conidia suspension of Pyrenophora teres. The plants remain for 48 hours in an incubation cabinet at 20° C. and a relative atmospheric humidity of 100% and are then sprayed with the preparation of active compound at the stated rate of application.
The plants are placed in a greenhouse at a temperature of approximately 20° C. and a relative atmospheric humidity of approximately 80%.
The test is evaluated 8 days after the inoculation.

Penicillium brevicaule = Penicillium brevicaule test (in vitro)/microtest; format: cell-based; settings: 4 days incubation, optical density
Procedure: The microtest was performed in liquid medium with potato-dextrose broth (PDB) using microtitre plates.
The active compound is applied as the technical active substance dissolved in aceton.
A spore suspension of Penicillium brevicaule was used for inoculation. After 4 days of incubation by darkness under shaking (10 Hrz), the optical density in each cavity was evaluated with the aid of a microtitre plate reader.
0% means an efficacy which corresponds to that of the control, while an efficacy of 100% means that no fungal growth is observed.

Fusarium graminearum = format: in vivo; settings: barley, curative spray, 125 g/ha of each active compound, evaluation 7 days after inoculation
[1] = test system: Erysiphe graminis f.sp. tritici; test: Erysiphe test (wheat)/curative; format: in vivo; settings: curative spray, 125 g/ha of each active compound, evaluation 8 days after inoculation
Procedure: as §1
To produce a suitable preparation of active compound, 1 part by weight of active compound is mixed with the stated amounts of solvent and emulsifier, and the concentrate is diluted with water to the desired concentration.
To test for curative activity, young plants are sprayed with spores of Erysiphe graminis f.sp. tritici. 48 hours after the inoculation, the plants are sprayed with the preparation of active compound at the stated application rate. The plants are placed in a greenhouse at a temperature of about 20° C. and a relative atmospheric humidity of about 80% to promote the development of mildew pustules. Evaluation is carried out 8 days after the inoculation. What is determined is the efficacy in %. 0% means an efficacy which corresponds to that of the control, whereas an efficacy of 100% means that no infection is observed.

SMILES	Efficacy in % (Act = actual efficacy) (Pyrenophora teres)	Efficacy in % (Penicillium brevicaule; 0.003 ppm)	Efficacy in % found (Fusarium graminearum)	Efficacy in % found [1]	Efficacy in % (Penicillium brevicaule; 0.03 ppm)
CC(C)(C)C(O)(CCc1ccc(Cl)cc1)Cn1cncn1 (centres unmarked) [(II-17), tebuconazole]	22%				
CON=C(C(=O)OC)c1ccccc1CON=C(C)c1cccc(C(F)(F)F)c1 [(III-4), trifloxystrobin]		1%			
OC(Cc1ccccc1Cl)(Cn1nc[nH]c1=S)C1(Cl)CC1 (centres unmarked) [(II-15), prothioconazole]	22%		58%	33%	
CC(C)C1CCC(Cc2ccc(Cl)cc2)C1(O)Cn1cncn1 (centres unmarked) [(II-18), ipconazole]		8%			
Cn1cc(C(=O)Nc2ccc(F)cc2-c2ccc(Cl)c(Cl)c2)c(C(F)F)n1 [(I-23), N-(3′,4′-dichloro-5-fluoro-1,1′-biphenyl-2-yl)-3-(difluoromethyl)-1-methyl-1H-pyrazole-4-carboxamide]	22%				
CO/N=C(/C1=NOCCO1)c1ccccc1Oc1ncnc(Oc2ccccc2Cl)c1F [(III-2), fluoxastrobin]	22%		50%	39%	
Cc1nn(C)c(F)c1C(=O)Nc1ccccc1C(C)CC(C)C (centres unmarked) [(I-2), N-[2-(1,3-dimethylbutyl)phenyl]-5-fluoro-1,3-dimethyl-1H-pyrazole-4-carboxamide]	22%		42%	0%	16%

Source: patent US20110218100A1 (priority 2005, published 2011)
